Results: patent US8486719B2, “Multiplex assay methods and compositions” (PerkinElmer BioSignal, Inc., priority 2009, dated 2013)

Columns and labels:
MEK1/ERK2 = MEK1/ERK2 (Homo sapiens, UniProt Q02750); test: One well multiplexed assay, 615 nm signal: interaction between MEK1 and ERK2 with increasing ATP; format: binding; conditions: signal detected at 615 nm, FIG. 4; read-out: EC50 for ATP-induced MEK1/ERK2 dissociation
Source text: (§1) The kinase MEK1 is expressed with a histidine tag (6×His) at either the C- or N-terminus.
(§2) An antibody which recognizes MEK1 phosphorylated ERK2 (mouse anti-pTpY ERK1/2) is associated with acceptor beads containing thioxene, 9,10-bis(phenylethynyl)anthracene and rubrene via anti-mouse IgG antibody binding. The antibody used, p-Tyr-100, is a generic highly promiscuous anti-phosphotyrosine antibody which recognizes both mono (pY) and dual-(pTpY) phosphorylated forms of ERK2.
(§3) Increasing concentrations of ATP were used to promote the phosphorylation of ERK2 by MEK1.

MEK1 = MEK1 (Homo sapiens, UniProt Q02750); test: One well multiplexed assay, 572 nm signal: ERK2 phosphorylation by MEK1 with increasing ATP; format: biochemical; conditions: signal detected at 572 nm, FIG. 4; read-out: EC50 for ATP-induced ERK2 phosphorylation
Source text: as §1, §2, §3

[1] = molecular target: T1, human bombesin (hBombesin) 3 (Homo sapiens, UniProt P32247); test: Surface expression of FLAG-tagged bombesin receptor on phthalocyanine-loaded cells, anti-FLAG acceptor beads; format: cell-based; conditions: 10 nM or 300 nM agonist, 1 hour at 37° C., Balb3T3 hBombesin 3 FLAG cells
T1 construct: expressed in transfected cells; host or cells: Balb3T3
T1 sequence (P32247 1-399): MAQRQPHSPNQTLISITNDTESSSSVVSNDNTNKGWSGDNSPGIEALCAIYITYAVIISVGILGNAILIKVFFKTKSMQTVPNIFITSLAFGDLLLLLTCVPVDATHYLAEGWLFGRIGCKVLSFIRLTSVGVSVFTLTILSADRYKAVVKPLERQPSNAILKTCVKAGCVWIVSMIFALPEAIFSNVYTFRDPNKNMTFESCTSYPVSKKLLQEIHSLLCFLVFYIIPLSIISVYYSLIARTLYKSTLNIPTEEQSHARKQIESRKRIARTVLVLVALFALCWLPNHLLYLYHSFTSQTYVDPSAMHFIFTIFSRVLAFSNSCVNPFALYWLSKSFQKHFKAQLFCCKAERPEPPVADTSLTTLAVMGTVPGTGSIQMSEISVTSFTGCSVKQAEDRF
Method: Bombesin receptor is a well-characterized cell surface receptor which is known to internalize and decrease in cell surface expression following agonist (bombesin) binding. Balb3T3 cells expressing human bombesin (hBombesin) 3 with a FLAG tag and Balb3T3 cells expressing human bombesin 3 without a FLAG tag were used to monitor the expression and binding activity of the bombesin receptor, GPCR in these cells.
About 10 nM or 300 nM of the Bombesin peptide agonist, (6-14)[D-tyr6, b-Ala11, Phe13, Nle14] was incubated with Balb3T3 hBombesin 3 FLAG cells and Balb3T3 hBombesin WT cells for 1 hour at 37° C. after which cells were harvested, labeled with 10 μM to 30 μM Al^3+-phthalocyanine. The phthalocyanine-loaded cells are washed several times in MES or HEPES buffer following the incubation to remove excess phthalocyanine. About 20 to 40 of the anti-FLAG antibody-conjugated acceptor beads including a thioxene and europium chelate emission system are added to the assay mix including MES or HEPES buffer and the phthalocyanine-loaded cells and incubated for 1 hour at room temperature. […] The FLAG-tagged hBombesin was detected with anti-FLAG Acceptor beads in the assay.

Chain of MEK1 (Q02750 whole entry, species assumed): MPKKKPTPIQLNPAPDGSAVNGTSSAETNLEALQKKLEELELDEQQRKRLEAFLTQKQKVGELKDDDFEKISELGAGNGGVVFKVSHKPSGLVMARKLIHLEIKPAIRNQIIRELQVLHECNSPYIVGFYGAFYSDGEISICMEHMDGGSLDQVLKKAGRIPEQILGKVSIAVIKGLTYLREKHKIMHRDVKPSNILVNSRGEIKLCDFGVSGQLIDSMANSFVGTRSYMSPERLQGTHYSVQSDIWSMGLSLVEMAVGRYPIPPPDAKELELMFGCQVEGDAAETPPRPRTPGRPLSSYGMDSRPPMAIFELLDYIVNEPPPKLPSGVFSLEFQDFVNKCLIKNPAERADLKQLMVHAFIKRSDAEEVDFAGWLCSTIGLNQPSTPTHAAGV
Chain of MEK1/ERK2 (Q02750 whole entry, species assumed): as above

Compound | EC50 (MEK1/ERK2) | EC50 (MEK1) | surface expression of the bombesin receptor following agonist stimulation [1]
Nc1ncnc2c1ncn2[C@@H]1O[C@H](COP(=O)(O)OP(=O)(O)OP(=O)(O)O)[C@@H](O)[C@H]1O [ATP] | ~1 µM | ~1 µM | 
(6-14)[D-tyr6, b-Ala11, Phe13, Nle14] |  |  | Changes in surface expression of the bombesin receptor following agonist stimulation are detected
